Test results: patent publication US11261196B2, “Salt serving as AKT inhibitor and crystal thereof” (HARBIN ZHENBAO PHARMACEUTICAL CO., LTD., priority 2017, dated 2022)
“And” between values parts separate entries of the source, which are not always exact repeats. Identical values can stand only once. “Also recorded” adds a separate entry of the source. Like-named read-outs stand apart in the source and are kept apart here.

Legend:
AKT1 = biological target: T1, AKT1 (Homo sapiens, UniProt P31749); assay: AKT enzyme activity test (LANCE TR-FRET), AKT1; type: biochemical
T1 construct: purchased life technology
T1 sequence (P31749 whole entry): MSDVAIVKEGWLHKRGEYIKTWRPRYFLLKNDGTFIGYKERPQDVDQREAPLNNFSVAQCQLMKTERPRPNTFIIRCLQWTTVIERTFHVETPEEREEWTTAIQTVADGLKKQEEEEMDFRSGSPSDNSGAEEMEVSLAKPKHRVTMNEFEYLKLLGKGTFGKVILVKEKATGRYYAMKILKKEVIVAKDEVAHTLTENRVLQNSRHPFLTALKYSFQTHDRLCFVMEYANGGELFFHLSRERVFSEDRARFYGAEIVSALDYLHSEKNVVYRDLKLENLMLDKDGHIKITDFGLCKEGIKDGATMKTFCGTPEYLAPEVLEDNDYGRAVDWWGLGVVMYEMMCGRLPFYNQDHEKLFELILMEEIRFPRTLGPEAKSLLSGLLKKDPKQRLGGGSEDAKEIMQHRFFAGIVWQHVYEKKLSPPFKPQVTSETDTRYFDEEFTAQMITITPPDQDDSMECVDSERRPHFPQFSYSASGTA
Text: (§1) AKT, also known as protein kinase B (PKB), is a serine/threonine specific protein kinase, mainly including AKT1, AKT2 and AKT3. The AKT signaling pathway plays an important role in various cellular processes such as glucose metabolism, apoptosis, cell proliferation transcription and cell migration. This study intends to analyze the inhibitory effect of the crystal form of the compound of formula (I) on the kinase activity of AKT family members.
(§2) In this experiment, the homogeneous time-resolved fluorescence […] energy transfer (LANCE TR-FRET®) method was used. The enzymes, biotinylated polypeptide substrates and the compound to be tested were mixed in the detection plate, and ATP was added to initiate the reaction and the mixture was incubated. After the reaction, EDTA was added to terminate the reaction, and Eu-labeled antibody was added at the same time to carry out the reaction and the reaction was detected. The detection plate was analyzed using Envision from PE Company, and the analysis mode was TR-FRET, the data were expressed by fluorescence signals at 665 nm and 615 nm, respectively.
(§3) Compound preparation: the test compound and the reference compound were diluted with 100% DMSO, the initial concentrations of the compounds were 10 μM, and the compounds were 3-fold gradient diluted into 10 concentrations. […]

[1] = test system: prostate cancer cell LNCaP overexpressing AKT; assay: Cytoactive test, cell proliferation (CellTiter-Glo); type: cell-based
Text: This experiment intends to study the inhibitory effect of the compound of formula (I) on the prostate cancer cell LNCaP overexpressing AKT.
The content of ATP directly reflects the number and state of cells, and the number of living cells can be detected by quantitatively measuring ATP. The live cell detection kit contains luciferase and its substrate, with the participation of ATP, luciferase can catalyze the substrate and emit a stable optical signal, the amount of ATP in the cell can be determined by detecting the strength of the signal. Wherein the light signal is proportional to the amount of ATP in the cell, and ATP is positively correlated to the number of living cells, so that the proliferation of the cell can be detected. The detection plate was analyzed by using Envision from PE Company.
LNCaP cells were seeded in a 384-well plate, each well contained 1000 cells.
The cell plate was placed in a carbon dioxide incubator overnight.
The compound was 3-fold diluted with Bravo into 10 compound concentrations, and a double duplicate well experiment was set up.
The compound was transferred to the cell plate at an initial concentration of 10 μM. […]
Promega CellTiter-Glo reagent was added to the cell plate, and incubated at room temperature for 10 minutes to stabilize the luminescence signal, which was read by PerkinElmer Envision multi-label analyzer.

AKT2 = biological target: T2, AKT2 (Homo sapiens, UniProt P31751); assay: AKT enzyme activity test (LANCE TR-FRET), AKT2; type: biochemical
T2 construct: purchased life technology
T2 sequence (P31751 whole entry): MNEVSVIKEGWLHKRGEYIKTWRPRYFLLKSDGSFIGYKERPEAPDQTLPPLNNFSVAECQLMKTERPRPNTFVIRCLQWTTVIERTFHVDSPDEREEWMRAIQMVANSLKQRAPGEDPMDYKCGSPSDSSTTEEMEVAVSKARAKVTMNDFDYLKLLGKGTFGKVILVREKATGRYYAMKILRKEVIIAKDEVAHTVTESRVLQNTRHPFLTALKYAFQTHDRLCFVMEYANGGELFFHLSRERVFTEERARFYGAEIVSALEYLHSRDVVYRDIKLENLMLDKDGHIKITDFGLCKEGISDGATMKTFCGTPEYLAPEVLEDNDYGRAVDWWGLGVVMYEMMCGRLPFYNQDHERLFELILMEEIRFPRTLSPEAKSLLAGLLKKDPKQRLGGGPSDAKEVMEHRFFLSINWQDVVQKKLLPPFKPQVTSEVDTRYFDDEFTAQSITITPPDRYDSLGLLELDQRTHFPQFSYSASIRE
Text: as §1, §2, §3

[2] = Solubility test of the crystal form in different solvents; type: physicochemical; details: 25±2° C.; for solubility at 30 min: 25 °C, thermodynamic from solid, read-out: Solubility classification
Procedure: 10 mg of the crystal form of the compound of formula (I) was weighed accurately and placed in a glass bottle, 1 mL solvent was added thereto, the solution was shaken vigorously for 30 seconds every 5 minutes under 25±2° C., the dissolution phenomenon within 30 minutes was observed. The corresponding data was recorded. 1 mg of the insoluble sample in step 2.1 was weighed accurately and placed in a glass bottle, a suitable solvent was added thereto, the solution was shaken vigorously for 30 seconds every 5 minutes under 25±2° C., the dissolution phenomenon within 30 minutes was observed. The corresponding data was recorded. [table]

[3] = Stability test of the crystal form (accelerated conditions, HPLC related substances); type: physicochemical
Procedure: […] The sample was analyzed after 10 days, 1 month and 2 months.
1.2 Preparation of Diluent and Mobile Phase
Diluent: acetonitrile:water (1:1) was used as diluent
For example: 100 mL of pure water and 100 mL of pure acetonitrile were mixed in a glass bottle, followed by degassing with ultrasound for 10 minutes, then cooled down to room temperature.
Mobile phase A: 0.1% phosphoric acid aqueous solution
For example: 2.0 mL phosphoric acid was added into 2000 mL water, followed by ultrasound treatment for 10 minutes, the solution was mixed well and cooled down to room temperature as mobile phase A.
Mobile phase B: acetonitrile
Acetonitrile was used as mobile phase B.
1.3 Preparation of the Reference Solution (0.25 mg/mL Calculated by the Free Base)
The sample of the 0th day was used as reference sample, 16 mL of diluent was added thereto, followed by ultrasound treatment for 5 minutes, and the solution was mixed well. Then the solution was further subjected to 1-fold dilution and marked as STD-1 and STD-2, respectively.
1.4 Preparation of Sample Solution for Testing Sensitivity
Reference solution STD-1 (the sample of the 0th day) was subjected to 2000-fold dilution, noted as LOQ.
1.5 Preparation of the Sample Solution (0.25 mg/mL Calculated by the Freebase)
The sample was taken out and restored to room temperature and 16 mL diluent was added for dissolution. The solution was further subjected to 1-fold dilution to be used as sample solution to detect the content of related substances.

AKT3 = biological target: T3, AKT3 (Homo sapiens, UniProt Q9Y243); assay: AKT enzyme activity test (LANCE TR-FRET), AKT3; type: biochemical
T3 construct: purchased life technology
T3 sequence (Q9Y243 whole entry): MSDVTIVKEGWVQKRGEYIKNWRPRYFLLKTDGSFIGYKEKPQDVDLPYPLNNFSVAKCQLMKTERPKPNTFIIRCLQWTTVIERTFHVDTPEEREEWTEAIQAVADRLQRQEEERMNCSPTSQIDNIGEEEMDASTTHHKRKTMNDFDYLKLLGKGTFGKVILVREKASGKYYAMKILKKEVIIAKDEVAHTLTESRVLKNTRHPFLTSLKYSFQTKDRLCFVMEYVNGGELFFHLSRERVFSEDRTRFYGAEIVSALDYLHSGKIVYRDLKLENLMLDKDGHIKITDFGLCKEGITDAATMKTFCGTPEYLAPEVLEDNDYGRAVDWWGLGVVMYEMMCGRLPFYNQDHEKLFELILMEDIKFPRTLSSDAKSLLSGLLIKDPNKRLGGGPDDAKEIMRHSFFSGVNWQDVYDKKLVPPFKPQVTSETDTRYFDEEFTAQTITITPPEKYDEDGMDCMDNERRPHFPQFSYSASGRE
Text: as §1, §2, §3

[4] = Hygroscopicity test of the crystal form; type: physicochemical; details: 25° C., 24 hours
Procedure: Three dry glass weighing bottles (with an outer diameter of 50 mm and a height of 30 mm) with a stopper was placed in a desiccator with saturated ammonium chloride solution at the lower part, the glass weighing bottles were left open, the desiccator was covered with lid, and then the desiccator was placed in a 25° C. incubator and left overnight.
The weighing bottle was weighed precisely after placed overnight, the weight was respectively m1 1, m1 2, m1 3
An appropriate amount of the crystal form of the compound of formula (I) was laid flat in the weighing bottles which was already weighed (with the sample thickness of about 1 mm), and was weighed precisely, the weight was respectively m2 1, m2 2, m2 3.
The weighing bottle was left open and was placed together with the stopper in a desiccator with saturated ammonium chloride solution at the lower part, the weighing bottle was left open, the desiccator was covered with lid, and then the desiccator was placed in a 25° C. incubator for 24 hours.
The weighing bottle was covered with its stopper after placed for 24 hours, and then it was weighed precisely, the weight was respectively m3 1, m3 2, m3 3.
The hygroscopic weight gain was calculated, the calculation formula is as follows: Weight gain percentage=100%×(m3−m2)/(m2−m1)

## Cc1cnn2c1-c1cc(C(=O)N[C@H](CN)Cc3cccc(F)c3)sc1CCC2.O=C(O)/C=C\C(=O)O
AKT1
  inhibition effect against the activity of AKT1 kinase: strong inhibition effect
AKT1; Akt1 1.25 nM, ATP 36 μM, read-out: IC50 of inhibition on kinase activity, AKT1
  IC50: 0.0013 µM
[1]
  inhibitory effect on the growth of LNCaP cells: significant inhibitory effect
[1]; Homo sapiens, 72 h, 3 days, read-out: IC50 of inhibition on cell proliferation
  IC50: 0.067 µM
AKT2
  inhibition effect against the activity of AKT2 kinase: strong inhibition effect
AKT2; Akt2 2 nM, ATP 360 μM, read-out: IC50 of inhibition on kinase activity, AKT2
  IC50: 0.0503 µM
[2]; 0.1N HCl
  Solubility classification: barely soluble or insoluble
[2]; 0.1N NaOH
  Solubility classification: barely soluble or insoluble
[2]; aqueous buffer, 0.1N NaOH
  solubility at 30 min: < 0.1 mg/mL
[2]; organic solvent or mixture, Acetonitrile
  solubility at 30 min: < 0.1 mg/mL
[2]; organic solvent or mixture, Dimethyl sulfoxide
  solubility at 30 min: 100 to 1000 mg/mL
[2]; organic solvent or mixture, Methanol
  solubility at 30 min: 1 to 10 mg/mL
[2]; organic solvent or mixture, N-Methylpyrrolidone
  solubility at 30 min: 100 to 1000 mg/mL
[2]; simulated gastric fluid, 0.1N HCl
  solubility at 30 min: 0.1 to 1 mg/mL
[2]; Water
  solubility at 30 min: < 0.1 mg/mL
  Solubility classification: barely soluble or insoluble
[2]; Acetonitrile
  Solubility classification: barely soluble or insoluble
[2]; Dimethyl sulfoxide
  Solubility classification: quite soluble
[2]; Methanol
  Solubility classification: slightly soluble
[2]; N-Methylpyrrolidone
  Solubility classification: quite soluble
[3]; 40° C./75%RH, 1M
  Impurity content, RRT 0.95: 0.05%
  Impurity content, RRT 0.98: 0.10%
  Impurity content, RRT 0.99: 1.36%
  Impurity content, RRT 1.02: 0.22%
  Impurity content, RRT 1.04: 0.05%
  Impurity content, RRT 1.06: 0.05%
  Impurity content, RRT 1.21: 1.50%
  Impurity content, RRT 1.26: 0.07%
  TRS (total impurity content): 3.38%
[3]; 40° C./75%RH, 2M
  Impurity content, RRT 0.95: 0.04%
  Impurity content, RRT 0.98: 0.10%
  Impurity content, RRT 0.99: 1.31%
  Impurity content, RRT 1.02: 0.20%
  Impurity content, RRT 1.04: 0.04%
  Impurity content, RRT 1.06: 0.09%
  Impurity content, RRT 1.21: 1.44%
  Impurity content, RRT 1.26: 0.06%
  Impurity content, RRT 1.43: 0.09%
  TRS (total impurity content): 3.37%
[3]; 40° C./75%RH, 10D
  Impurity content, RRT 0.98: 0.10%
  Impurity content, RRT 0.99: 1.40%
  Impurity content, RRT 1.02: 0.24%
  Impurity content, RRT 1.04: 0.04%
  Impurity content, RRT 1.21: 1.50%
  Impurity content, RRT 1.26: 0.06%
  TRS (total impurity content): 3.35%
[3]; 60° C./75%RH, 1M
  Impurity content, RRT 0.95: 0.05%
  Impurity content, RRT 0.98: 0.10%
  Impurity content, RRT 0.99: 1.27%
  Impurity content, RRT 1.02: 0.19%
  Impurity content, RRT 1.04: 0.08%
  Impurity content, RRT 1.06: 0.34%
  Impurity content, RRT 1.21: 1.44%
  Impurity content, RRT 1.26: 0.10%
  TRS (total impurity content): 3.57%
[3]; 60° C./75%RH, 2M
  Impurity content, RRT 0.95: 0.04%
  Impurity content, RRT 0.98: 0.10%
  Impurity content, RRT 0.99: 1.22%
  Impurity content, RRT 1.02: 0.24%
  Impurity content, RRT 1.04: 0.08%
  Impurity content, RRT 1.06: 0.45%
  Impurity content, RRT 1.21: 1.43%
  Impurity content, RRT 1.26: 0.10%
  Impurity content, RRT 1.33: 0.06%
  Impurity content, RRT 1.36: 0.08%
  Impurity content, RRT 1.43: 0.05%
  TRS (total impurity content): 3.85%
[3]; 60° C./75%RH, 10D
  Impurity content, RRT 0.98: 0.10%
  Impurity content, RRT 0.99: 1.36%
  Impurity content, RRT 1.02: 0.24%
  Impurity content, RRT 1.04: 0.07%
  Impurity content, RRT 1.06: 0.15%
  Impurity content, RRT 1.21: 1.46%
  Impurity content, RRT 1.26: 0.09%
  TRS (total impurity content): 3.47%
[3]; high temperature and high humidity
  Stability: stable under the conditions of high temperature and high humidity; also recorded: relatively stable, and less affected by heat and humidity
[3]; −20° C., 1M
  Impurity content, RRT 0.95: 0.04%
  Impurity content, RRT 0.98: 0.11%
  Impurity content, RRT 0.99: 1.38%
  Impurity content, RRT 1.02: 0.22%
  Impurity content, RRT 1.04: 0.05%
  Impurity content, RRT 1.21: 1.52%
  Impurity content, RRT 1.26: 0.07%
  TRS (total impurity content): 3.38%
[3]; −20° C., 2M
  Impurity content, RRT 0.95: 0.04%
  Impurity content, RRT 0.98: 0.10%
  Impurity content, RRT 0.99: 1.35%
  Impurity content, RRT 1.02: 0.19%
  Impurity content, RRT 1.04: 0.04%
  Impurity content, RRT 1.21: 1.51%
  Impurity content, RRT 1.26: 0.10%
  Impurity content, RRT 1.43: 0.05%
  TRS (total impurity content): 3.38%
[3]; −20° C., 10D
  Impurity content, RRT 0.95: 0.04%
  Impurity content, RRT 0.98: 0.10%
  Impurity content, RRT 0.99: 1.37%
  Impurity content, RRT 1.02: 0.29%
  Impurity content, RRT 1.04: 0.07%
  Impurity content, RRT 1.21: 1.47%
  Impurity content, RRT 1.26: 0.05%
  TRS (total impurity content): 3.39%
AKT3
  inhibition effect against the activity of AKT3 kinase: strong inhibition effect
AKT3; Akt3 2 nM, ATP 160 μM, read-out: IC50 of inhibition on kinase activity, AKT3
  IC50: 0.0904 µM
[4]
  Hygroscopicity scale: no or almost no hygroscopicity
[4]; average of 3 samples, saturated ammonium chloride
  Weight gain percentage, Average: 0.07%
[4]; single samples 1-3, saturated ammonium chloride
  Weight gain percentage: 0.05% and 0.12% and 0.04%
